Measurements published in PubChem BioAssay AID264 (DTP/NCI, 2004).
Values joined by “and” are separate entries in the source; they are usually repeats but may differ in a detail not shown here. Equal entries are not always repeated. Inconclusive results are not listed.

System: nude mice, LX-1 lung xenograft intrarenal, tumor weight T/C
Assay: NCI In Vivo Anticancer Drug Screen. Data for tumor model Human Lung LX-1 Xenograft (intrarenal inoculation) in NU/NU Swiss (nude) mice
Settings: endpoint: mean tumor weight change, higher = larger tumour
Method in brief: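 In vivo, transplantable tumor; compound vs vehicle arms; tumor size measured; value = T/C.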

[1] = dose: 25.0 mg/kg/injection, schedule: Q04DX003 (sc), vehicle: saline
[2] = dose: 50.0 mg/kg/injection, schedule: Q04DX003 (sc), vehicle: saline
[3] = dose: 100.0 mg/kg/injection, schedule: Q04DX003 (sc), vehicle: saline
[4] = dose: 100.0 mg/kg/injection, schedule: Q04DX003 (sc), vehicle: suspension in saline
[5] = dose: 200.0 mg/kg/injection, schedule: Q04DX003 (sc), vehicle: saline
[6] = dose: 200.0 mg/kg/injection, schedule: Q04DX003 (sc), vehicle: suspension in saline
[7] = dose: 300.0 mg/kg/injection, schedule: Q04DX003 (sc), vehicle: Klucel (hydroxypropylcellulose) (HPC)
[8] = dose: 600.0 mg/kg/injection, schedule: Q04DX003 (sc), vehicle: Klucel (hydroxypropylcellulose) (HPC)
[9] = dose: 1200.0 mg/kg/injection, schedule: Q04DX003 (sc), vehicle: Klucel (hydroxypropylcellulose) (HPC)
[10] = dose: 300.0 mg/kg/injection, schedule: Q04DX003 (sc), vehicle: saline with Tween-80
[11] = dose: 600.0 mg/kg/injection, schedule: Q04DX003 (sc), vehicle: saline with Tween-80
[12] = dose: 1200.0 mg/kg/injection, schedule: Q04DX003 (sc), vehicle: saline with Tween-80
[13] = dose: 5.0 mg/kg/injection, schedule: Q01DX010 (sc), vehicle: saline with Tween-80
[14] = dose: 150.0 mg/kg/injection, schedule: Q04DX003 (sc), vehicle: saline with Tween-80
[15] = dose: 50.0 mg/kg/injection, schedule: Q01DX010 (sc), vehicle: saline

SMILES: COc1ccc(C(=O)C(CN(C)C)CN(C)C)cc1
- T/C (dose: 12.5 mg/kg/injection, schedule: Q04DX003 (sc), vehicle: saline): 68 % of control
- T/C [1]: 113 % of control
- T/C [2]: 64 % of control

SMILES: CCC(C(=O)O)C(=O)O.[NH2-].[NH2-].[Pt+2]
- T/C (dose: 37.5 mg/kg/injection, schedule: Q04DX003 (sc), vehicle: saline): 110 % of control
- T/C (dose: 75.0 mg/kg/injection, schedule: Q04DX003 (sc), vehicle: suspension in saline): 54 % of control
- T/C [3]: 92 % of control
- T/C [4]: 46 % of control
- T/C (dose: 150.0 mg/kg/injection, schedule: Q04DX003 (sc), vehicle: suspension in saline): 40 % of control
- T/C [5]: 76 % of control
- T/C [6]: 27 % of control

SMILES: CCOC(=O)CNC(=O)Sc1ccc(C(C)(C)C)cc1
- T/C (dose: 150.0 mg/kg/injection, schedule: Q04DX003 (sc), vehicle: Klucel (hydroxypropylcellulose) (HPC)): 89 % of control
- T/C [7]: 99 % of control
- T/C [8]: 76 % of control
- T/C [9]: 95 % of control

SMILES: Nc1nc(-c2ccccc2)c(Br)c(=O)[nH]1
- T/C [10]: 77 % of control
- T/C [11]: 69 % of control
- T/C [12]: 54 % of control
- T/C (dose: 2400.0 mg/kg/injection, schedule: Q04DX003 (sc), vehicle: saline with Tween-80): 66 % of control

SMILES: CC1OC(=O)C(C(C)C)NC(=O)C(C(C)C)OC(=O)C(C(C)C)NC(=O)C(C)OC(=O)C(C(C)C)NC(=O)C(C(C)C)OC(=O)C(C(C)C)NC(=O)C(C)OC(=O)C(C(C)C)NC(=O)C(C(C)C)OC(=O)C(C(C)C)NC1=O (stereo not drawn)
- T/C (dose: 5.0 mg/kg/injection, schedule: Q01DX010 (ip), vehicle: saline with Tween-80): 44 % of control
- T/C [13]: 107 % of control
- T/C (dose: 10.0 mg/kg/injection, schedule: Q01DX010 (ip), vehicle: saline with Tween-80): 28 % of control
- T/C (dose: 16.66 mg/kg/injection, schedule: Q04DX003 (ip), vehicle: saline with Tween-80): 56 % of control
- T/C (dose: 16.66 mg/kg/injection, schedule: Q04DX003 (sc), vehicle: saline with Tween-80): 179 % of control
- T/C (dose: 33.33 mg/kg/injection, schedule: Q04DX003 (sc), vehicle: saline with Tween-80): 94 % of control
- T/C (dose: 66.65 mg/kg/injection, schedule: Q04DX003 (ip), vehicle: saline with Tween-80): 37 % of control
- T/C (dose: 66.65 mg/kg/injection, schedule: Q04DX003 (sc), vehicle: saline with Tween-80): 119 % of control

SMILES: C[Si](C)(C)O/C=C1/CCOC1=O
- T/C (dose: 50.0 mg/kg/injection, schedule: Q04DX003 (sc), vehicle: suspension in saline): 115 % of control
- T/C [4]: 122 % of control
- T/C [6]: 107 % of control
- T/C (dose: 400.0 mg/kg/injection, schedule: Q04DX003 (sc), vehicle: suspension in saline): 106 % of control

SMILES: O=C1c2ccccc2C(=O)c2c(NCCNCCO)ccc(NCCNCCO)c21
- T/C (dose: 4.0 mg/kg/injection, schedule: Q01DX010 (sc), vehicle: water): 54 % of control
- T/C (dose: 16.0 mg/kg/injection, schedule: Q01DX010 (sc), vehicle: water): 65 % of control

SMILES: COc1ccc([I+]c2cccc(Cl)c2)cc1Cl
- T/C (dose: 75.0 mg/kg/injection, schedule: Q04DX003 (sc), vehicle: saline with Tween-80): 93 % of control
- T/C [14]: 86 % of control
- T/C [10]: 85 % of control
- T/C [11]: 74 % of control
- T/C [12]: 83 % of control

SMILES: C=C(C)[C@H]1Cc2c(ccc3c2O[C@@H]2COc4cc(OC)c(OC)cc4[C@@H]2C3=O)O1
- T/C (dose: 2.0 mg/kg/injection, schedule: Q01DX010 (sc), vehicle: saline with Tween-80): 286 % of control
- T/C (dose: 4.0 mg/kg/injection, schedule: Q01DX010 (sc), vehicle: saline with Tween-80): 62 % of control

SMILES: O=S(=O)(c1ccccc1)N1CN2CCN(C2)C1
- T/C [14]: 195 % of control
- T/C [11]: 106 % of control
- T/C [12]: 156 % of control

SMILES: C[C@@H](CN1CC(=O)NC(=O)C1)N1CC(=O)NC(=O)C1
- T/C (dose: 50.0 mg/kg/injection, schedule: Q01DX010 (sc), vehicle: saline with Tween-80): 91 % of control
- T/C (dose: 100.0 mg/kg/injection, schedule: Q01DX010 (sc), vehicle: saline with Tween-80): 34 % of control

SMILES: Nc1ncnc2c1ncn2C1OC(CO)C(O)C1O (stereo not drawn)
- T/C (dose: 25.0 mg/kg/injection, schedule: Q01DX010 (sc), vehicle: saline): 156 % of control
- T/C [15]: 97 % of control
- T/C [5]: 102 % of control
- T/C (dose: 400.0 mg/kg/injection, schedule: Q04DX003 (sc), vehicle: saline): 20 % of control
- T/C (dose: 800.0 mg/kg/injection, schedule: Q04DX003 (sc), vehicle: saline): 117 % of control
- T/C (dose: 1600.0 mg/kg/injection, schedule: Q04DX003 (sc), vehicle: saline): 70 % of control

SMILES: Cc1cc(SCC(=O)c2ccc(Br)cc2)cc(C)[o+]1
- T/C [15]: 111 % of control
- T/C (dose: 200.0 mg/kg/injection, schedule: Q01DX010 (sc), vehicle: saline): 116 % of control

SMILES: C1CNCOC1
- T/C (dose: 300.0 mg/kg/injection, schedule: Q04DX003 (sc), vehicle: saline): 90 % of control

SMILES: CCN(CC)CCCNc1nccc2c(C)c3[nH]c4ccncc4c3cc12
- T/C (dose: 5.0 mg/kg/injection, schedule: Q01DX010 (sc), vehicle: other): 59 % of control
- T/C (dose: 10.0 mg/kg/injection, schedule: Q01DX010 (sc), vehicle: other): 49 % of control

SMILES: O=C/C(Cl)=C(/Cl)C(=O)O
- T/C [13]: 124 % of control
- T/C (dose: 10.0 mg/kg/injection, schedule: Q01DX010 (sc), vehicle: saline with Tween-80): 210 % of control
- T/C (dose: 20.0 mg/kg/injection, schedule: Q01DX010 (sc), vehicle: saline with Tween-80): 72 % of control and 213 % of control
- T/C (dose: 40.0 mg/kg/injection, schedule: Q01DX010 (sc), vehicle: saline with Tween-80): 48 % of control and 65 % of control

SMILES: c1cc(-c2cc3ccc(C4=NCCN4)cc3[nH]2)ccc1C1=NCCN1
- T/C [1]: 68 % of control
- T/C [2]: 67 % of control
- T/C [3]: 73 % of control

SMILES: C[C@]12C=CC(=O)C=C1CC[C@@H]1[C@@H]2C(=O)C[C@@]2(C)[C@H]1CC[C@]2(O)C(=O)CO
- T/C [7]: 50 % of control
- T/C [8]: 56 % of control
- T/C [9]: 47 % of control
- T/C (dose: 2400.0 mg/kg/injection, schedule: Q04DX003 (sc), vehicle: Klucel (hydroxypropylcellulose) (HPC)): 35 % of control

SMILES: CN(C(=S)S(=O)(=O)C12CC3CC(CC(C3)C1)C2)c1ccccc1
- T/C (dose: 50.0 mg/kg/injection, schedule: Q04DX003 (sc), vehicle: Klucel (hydroxypropylcellulose) (HPC)): 164 % of control
- T/C (dose: 100.0 mg/kg/injection, schedule: Q04DX003 (sc), vehicle: Klucel (hydroxypropylcellulose) (HPC)): 161 % of control
- T/C (dose: 400.0 mg/kg/injection, schedule: Q04DX003 (sc), vehicle: Klucel (hydroxypropylcellulose) (HPC)): 176 % of control

SMILES: CNC(=O)OCc1c(COC(=O)NC)c(-c2ccccc2)n(C)c1-c1ccccc1
- T/C (dose: 50.0 mg/kg/injection, schedule: Q04DX003 (sc), vehicle: distilled water + Tween-80): 88 % of control
- T/C (dose: 100.0 mg/kg/injection, schedule: Q04DX003 (sc), vehicle: distilled water + Tween-80): 182 % of control
- T/C (dose: 200.0 mg/kg/injection, schedule: Q04DX003 (sc), vehicle: distilled water + Tween-80): 50 % of control
- T/C (dose: 800.0 mg/kg/injection, schedule: Q04DX003 (sc), vehicle: distilled water + Tween-80): 52 % of control
- T/C (dose: 1600.0 mg/kg/injection, schedule: Q04DX003 (sc), vehicle: distilled water + Tween-80): 57 % of control

SMILES: O=C(Nc1ccccc1C(=O)O)c1cc([N+](=O)[O-])cc([N+](=O)[O-])c1
- T/C (dose: 50.0 mg/kg/injection, schedule: Q04DX003 (sc), vehicle: saline with Tween-80): 86 % of control
- T/C (dose: 100.0 mg/kg/injection, schedule: Q04DX003 (sc), vehicle: saline with Tween-80): 86 % of control
- T/C (dose: 200.0 mg/kg/injection, schedule: Q04DX003 (sc), vehicle: saline with Tween-80): 100 % of control
- T/C (dose: 400.0 mg/kg/injection, schedule: Q04DX003 (sc), vehicle: saline with Tween-80): 64 % of control
